Data as given in patent US12187728B2 (Raze Therapeutics, Inc., priority 2015, dated 2025).

Target: T1, Human MTHFD2 (Homo sapiens, UniProt P13995)
T1 construct: residues 36-350 in Uniport ID P13995; His6 (N); made in house; host or cells: E. coli
T1 sequence (P13995 36-350): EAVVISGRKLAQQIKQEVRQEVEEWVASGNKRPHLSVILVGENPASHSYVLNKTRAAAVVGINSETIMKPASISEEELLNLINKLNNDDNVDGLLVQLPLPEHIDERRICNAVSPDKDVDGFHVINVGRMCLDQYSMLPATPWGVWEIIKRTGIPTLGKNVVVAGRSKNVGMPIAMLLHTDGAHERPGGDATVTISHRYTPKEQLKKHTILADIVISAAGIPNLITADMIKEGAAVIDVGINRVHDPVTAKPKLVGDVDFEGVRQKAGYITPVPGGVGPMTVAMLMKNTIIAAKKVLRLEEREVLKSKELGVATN
Assay: MTHFD2 Activity Assay (dehydrogenase activity, diaphorase/resazurin coupled fluorescence)
Assay type: biochemical
Conditions: inhibitory activity (IC50 and/or binding constant); 0.2 nM MTHFD2, 11 concentrations
Method in brief: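 His6-tagged MTHFD2 (res. 36-350), E. coli-expressed, at 0.2 nM preincubated with compound 15 min in Hepes pH 8.0/MgCl2/KH2PO4 buffer; 70 μM CH2-THF, 1 mM NAD+ added with resazurin/diaphorase, 30 min, EDTA stop. Resorufin fluorescence (ex 525/em 598); IC50 from 11-point 4-parameter fit.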

IC50	Structure (SMILES)
0.01 to 1 µM	Cn1c(-n2nccc2N)nc2c1c(=O)n(Cc1cc3ccccc3[nH]1)c(=O)n2C [Example 217, 1-((1H-indol-2-yl)methyl)-8-(5-amino-1H-pyrazol-1-yl)-3,7-dimethyl-1H-purine-2,6(3H,7H)-dione]
0.01 to 1 µM	Cn1c(N[C@H]2CC[C@@H](CO)C2)nc2c1c(=O)n(Cc1cc3ccccc3[nH]1)c(=O)n2C (stereo in doubt) [Example 317, 1-((1H-indol-2-yl)methyl)-8-((1S,3R)-3-(hydroxymethyl)cyclopentylamino)-3,7-dimethyl-1H-purine-2,6(3H,7H)-dione]
0.01 to 1 µM	Cn1c(Nc2ccnc(CCC(=O)N3CCC3)n2)nc2c1c(=O)n(Cc1cc3c(Cl)cccc3[nH]1)c(=O)n2C [Example 413, 8-(2-(3-(azetidin-1-yl)-3-oxopropyl)pyrimidin-4-ylamino)-1-((4-chloro-1H-indol-2-yl)methyl)-3,7-dimethyl-1H-purine-2,6(3H,7H)-dione]
1 to 5 µM	Cn1c(NC2CC(F)(F)C2)nc2c1c(=O)n(Cc1ccc(Cl)c(Cl)c1)c(=O)n2C [Example 112, 1-(3,4-dichlorobenzyl)-8-(3,3-difluorocyclobutylamino)-3,7-dimethyl-1H-purine-2,6(3H,7H)-dione]
1 to 5 µM	Cn1c(NC2CCNCC2)nc2c1c(=O)n(Cc1ccc(Cl)c(Cl)c1)c(=O)n2C [Example 35, 1-[(3,4-dichlorophenyl)methyl]-3,7-dimethyl-8-[(piperidin-4-yl)amino]-2,3,6,7-tetrahydro-1H-purine-2,6-dione]
0.01 to 1 µM	Cn1c(Nc2ccnc([C@H]3C[C@@H]3CO)c2)nc2c1c(=O)n(Cc1ccc(Cl)c(Cl)c1)c(=O)n2C (racemic) [Example 284, (±)-trans-1-(3,4-dichlorobenzyl)-8-((2-(2-(hydroxymethyl)cyclopropyl)pyridin-4-yl)amino)-3,7-dimethyl-1H-purine-2,6(3H,7H)-dione]
0.01 to 1 µM	Cn1c(N[C@@H]2CC[C@H](CO)C2)nc2c1c(=O)n(Cc1ccc(Cl)c(Cl)c1)c(=O)n2C [Example 276, 1-(3,4-dichlorobenzyl)-8-((1R,3S)-3-(hydroxymethyl)cyclopentylamino)-3,7-dimethyl-1H-purine-2,6(3H,7H)-dione]
> 10 µM	Cn1c(NCCCO)nc2c1c(=O)n(-c1ccc(Cl)c(Cl)c1)c(=O)n2C [Example 62, 1-(3,4-dichlorophenyl)-8-[(3-hydroxypropyl)amino]-3,7-dimethyl-2,3,6,7-tetrahydro-1H-purine-2,6-dione]
0.01 to 1 µM	Cc1ccc2[nH]c(Cn3c(=O)c4c(nc(Nc5cc[nH]c(=O)n5)n4C)n(C)c3=O)cc2c1 [Example 190, 3,7-dimethyl-1-((5-methyl-1H-indol-2-yl)methyl)-8-(2-oxo-1,2-dihydropyrimidin-4-ylamino)-1H-purine-2,6(3H,7H)-dione]
0.01 to 1 µM	Cn1c(NCCOCCO)nc2c1c(=O)n(Cc1ccc(Cl)c(Cl)c1)c(=O)n2C [Example 54, 1-[(3,4-dichlorophenyl)methyl]-8-{[2-(2-hydroxyethoxy)ethyl]amino}-3,7-dimethyl-2,3,6,7-tetrahydro-1H-purine-2,6-dione]
1 to 5 µM	Cn1c(N[C@@H]2CC[C@@H](O)C2)nc2c1c(=O)n(Cc1ccc(C(F)(F)F)cc1)c(=O)n2C (single isomer, unassigned) [Example 76, 8-((1R,3R)-3-hydroxycyclopentylamino)-3,7-dimethyl-1-(4-(trifluoromethyl)benzyl)-1H-purine-2,6(3H,7H)-dione or 8-((1S,3S)-3-hydroxycyclopentylamino)-3,7-dimethyl-1-(4-(trifluoromethyl)benzyl)-1H-purine-2,6(3H,7H)-dione]
1 to 5 µM	COc1cc(Cn2c(=O)c3c(nc(NCCCO)n3C)n(C)c2=O)ccc1Cl [Example 96, 1-[(4-chloro-3-methoxyphenyl)methyl]-8-[(3-hydroxypropyl)amino]-3,7-dimethyl-2,3,6,7-tetrahydro-1H-purine-2,6-dione]
1 to 5 µM	Cn1c(Nc2cc(CCC(=O)O)ccn2)nc2c1c(=O)n(Cc1ccc(Cl)c(Cl)c1)c(=O)n2C [Example 281, 3-(2-(1-(3,4-dichlorobenzyl)-3,7-dimethyl-2,6-dioxo-2,3,6,7-tetrahydro-1H-purin-8-ylamino)pyridin-4-yl)propanoic acid]
0.01 to 1 µM	Cn1c(=O)n(Cc2ccc(Cl)c(Cl)c2)c(=O)c2c1nc(NC1CCCC(C(=O)O)C1)n2CCN (stereo not drawn) [Example 369, 3-(7-(2-aminoethyl)-1-(3,4-dichlorobenzyl)-3-methyl-2,6-dioxo-2,3,6,7-tetrahydro-1H-purin-8-ylamino)cyclohexanecarboxylic acid]
0.01 to 1 µM	Cn1c(Nc2ccncc2)nc2c1c(=O)n(Cc1cc3cc(Cl)ccc3[nH]1)c(=O)n2C [Example 176, 1-((5-chloro-1H-indol-2-yl)methyl)-3,7-dimethyl-8-(pyridin-4-ylamino)-1H-purine-2,6(3H,7H)-dione]
1 to 5 µM	Cn1c(NC[C@@H]2CCCO2)nc2c1c(=O)n(Cc1ccc(Cl)c(Cl)c1)c(=O)n2C [Example 104, (S)-1-(3,4-dichlorobenzyl)-3,7-dimethyl-8-((tetrahydrofuran-2-yl)methylamino)-1H-purine-2,6(3H,7H)-dione]
0.01 to 1 µM	Cn1c(CN)nc2c1c(=O)n(Cc1cc3c(Cl)cccc3[nH]1)c(=O)n2C [Example 358, 8-(aminomethyl)-1-[(4-chloro-1H-indol-2-yl)methyl]-3,7-dimethyl-purine-2,6-dione]
0.01 to 1 µM	Cn1c([C@H](N)Cc2ccncc2)nc2c1c(=O)n(Cc1cc3c(Cl)cccc3[nH]1)c(=O)n2C [Example 447, (R)-8-(1-amino-2-(pyridin-4-yl)ethyl)-1-((4-chloro-1H-indol-2-yl)methyl)-3,7-dimethyl-1H-purine-2,6(3H,7H)-dione]
0.01 to 1 µM	Cn1c(C(N)CC2CC2)nc2c1c(=O)n(Cc1cc3c(Cl)cccc3[nH]1)c(=O)n2C (stereo not drawn) [Example 442]
0.01 to 1 µM	Cn1c(NCCCO)nc2c1c(=O)n(Cc1ccc(Cl)c(C(F)(F)F)c1)c(=O)n2C [Example 67, 1-{[4-chloro-3-(trifluoromethyl)phenyl]methyl}-8-[(3-hydroxypropyl)amino]-3,7-dimethyl-2,3,6,7-tetrahydro-1H-purine-2,6-dione]
1 to 5 µM	Cn1c(NCCO)nc2c1c(=O)n(Cc1ccc(Cl)c(Cl)c1)c(=O)n2C [Example 1, 1-(3,4-dichlorobenzyl)-8-((2-hydroxyethyl)amino)-3,7-dimethyl-1H-purine-2,6(3H,7H)-dione]
0.01 to 1 µM	COc1ccc2[nH]c(Cn3c(=O)c4c(nc(N[C@H]5CC[C@@H](O)C5)n4C)n(C)c3=O)cc2c1 [Example 182, 8-((1S,3R)-3-hydroxycyclopentylamino)-1-((5-methoxy-1H-indol-2-yl)methyl)-3,7-dimethyl-1H-purine-2,6(3H,7H)-dione]
0.01 to 1 µM	Cn1c(Nc2ccc(CN)nc2)nc2c1c(=O)n(Cc1cc3c(Cl)cccc3[nH]1)c(=O)n2C [Example 429, 8-(6-(aminomethyl)pyridin-3-ylamino)-1-((4-chloro-1H-indol-2-yl)methyl)-3,7-dimethyl-1H-purine-2,6(3H,7H)-dione]
0.01 to 1 µM	Cn1c(N[C@H]2CC[C@@H](O)C2)nc2c1c(=O)n(Cc1ccc3sccc3c1)c(=O)n2C (racemic) [Example 74, (±)-1-(1-benzothiophen-5-ylmethyl)-8-{[(cis)-3-hydroxycyclopentyl]amino}-3,7-dimethyl-2,3,6,7-tetrahydro-1H-purine-2,6-dione or (±)-1-(1-benzothiophen-5-ylmethyl)-8-{[(trans)-3-hydroxycyclopentyl]amino}-3,7-dimethyl-2,3,6,7-tetrahydro-1H-purine-2,6-dione]
1 to 5 µM	Cn1c(Nc2cn[nH]c2)nc2c1c(=O)n(Cc1ccc(Cl)c(Cl)c1)c(=O)n2C [Example 135]
0.01 to 1 µM	Cn1c(C2CCCCN2)nc2c1c(=O)n(Cc1cc3c(Cl)cccc3[nH]1)c(=O)n2C (stereo not drawn) [Example 430, 1-((4-chloro-1H-indol-2-yl)methyl)-3,7-dimethyl-8-(piperidin-2-yl)-3,7-dihydro-1H-purine-2,6-dione]
0.01 to 1 µM	COC(=O)c1ccc(Nc2nc3c(c(=O)n(Cc4cc5c(Cl)cccc5[nH]4)c(=O)n3C)n2C)cn1 [Example 408, Methyl 5-(1-((4-chloro-1H-indol-2-yl)methyl)-3,7-dimethyl-2,6-dioxo-2,3,6,7-tetrahydro-1H-purin-8-ylamino)picolinate]
0.01 to 1 µM	Cn1c(Nc2ccnc(C3CC(C(=O)O)C3)c2)nc2c1c(=O)n(Cc1ccc(Cl)c(Cl)c1)c(=O)n2C (stereo not drawn) [Example 309, 3-(4-(1-(3,4-dichlorobenzyl)-3,7-dimethyl-2,6-dioxo-2,3,6,7-tetrahydro-1H-purin-8-ylamino)pyridin-2-yl)cyclobutanecarboxylic acid]
1 to 5 µM	Cn1c(Nc2ccc3c(c2)CC(CO)C3)nc2c1c(=O)n(Cc1ccc(Cl)c(Cl)c1)c(=O)n2C (stereo not drawn) [Example 324, 1-(3,4-dichlorobenzyl)-8-((2-(hydroxymethyl)-2,3-dihydro-1H-inden-5-yl)amino)-3,7-dimethyl-1H-purine-2,6(3H,7H)-dione]
0.01 to 1 µM	Cn1c(Nc2ccnc(CCC(=O)N3CCOCC3)n2)nc2c1c(=O)n(Cc1cc3c(Cl)cccc3[nH]1)c(=O)n2C [Example 416, 1-((4-chloro-1H-indol-2-yl)methyl)-3,7-dimethyl-8-((2-(3-morpholino-3-oxopropyl)pyrimidin-4-yl)amino)-3,7-dihydro-1H-purine-2,6-dione]
